This note sets out measurements from US10377719B2, “Trypanosomes inhibitors” (Hoffmann-La Roche Inc., priority 2015, dated 2019).

Usually IC50 stands for the point on the concentration scale where inhibition reaches its midpoint. A low value points to greater potency.

The test system of the assay is Trypanosoma brucei rhodesiense STIB900. The assay is described as follows: Activity against Trypanosoma brucei rhodesiense STIB900 (Alamar Blue assay). The class given is cell-based. To be noted: Trypanosoma brucei, 70 h, bloodstream forms of T. b. rhodesiense STIB 900, 70 h incubation. The protocol: Activity Against Trypanosoma brucei Rhodesiense STIB900
This stock was isolated in 1982 from a human patient in Tanzania and after several mouse passages cloned and adapted to axenic culture conditions (Baltz, T., D. Baltz, C. Giroud, and J. Crockett. 1985, Cultivation in a semi-defined medium of animal infective forms of Trypanosoma brucei, T. equiperdum, T. evansi, T. rhodesiense and T. gambiense. EMBO Journal 4:1273-1277). Minimum Essential Medium (50 μl) supplemented with 25 mM HEPES, 1 g/l additional glucose, 1% MEM non-essential amino acids (100×), 0.2 mM 2-mercaptoethanol, 1 mM Na-pyruvate and 15% heat inactivated horse serum was added to each well of a 96-well microtiter plate. Serial drug dilutions of eleven 3-fold dilution steps covering a range from […] were prepared. Then 4×10^3 bloodstream forms of T. b. rhodesiense STIB 900 in 50 μl was added to each well and the plate incubated at 37° C. under a 5% CO2 atmosphere for 70 h. 10 μl Alamar Blue (resazurin, 12.5 mg in 100 ml double-distilled water) was then added to each well and incubation continued for a further 2-4 h (Räz, B., M. Iten, Y. Grether-Buhler, R. Kaminsky, and R. Brun. 1997, The Alamar Blue assay to determine drug sensitivity of African trypanosomes (T.b. rhodesiense and T.b. gambiense) in vitro. Acta Trop 68:139-47). Then the plates were read with a Spectramax Gemini XS microplate fluorometer (Molecular Devices Cooperation, Sunnyvale, Calif., USA) using an excitation wave length of 536 nm and an emission wave length of 588 nm. The IC50 values were calculated by linear regression (Huber, W. Koella, J. C. 1993, A comparison of the three methods of estimating EC50 in studies of drug resistance of malaria parasites. Acta Trop. 55, 257-261) from the sigmoidal dose inhibition curves using SoftmaxPro software (Molecular Devices Cooperation, Sunnyvale, Calif., USA). Melarsoprol is used as control.
In general terms: The colour change of resazurin is a common sign of viable cells or microbes.
With `N#CC1(NC(=O)[C@H](Cc2cccc(Cl)c2)NC(=O)c2cnn(-c3ccc(F)cc3)n2)CC1` [Example 25, N-[(2S)-3-(3-chlorophenyl)-1-[(1-cyanocyclopropyl)amino]-1-oxopropan-2-yl]-2-(4-fluorophenyl)triazole-4-carboxamide], the half-inhibitory concentration (IC50) amounted to 1.33 µM.

In turn, `N#CC1(NC(=O)[C@H](Cc2ccc(OC(F)(F)F)c(Cl)c2)NC(=O)c2cnn(-c3cccnc3)n2)CC1` [Example 26, N-[(2S)-3-[3-chloro-4-(trifluoromethoxy)phenyl]-1-[(1-cyanocyclopropyl)amino]-1-oxopropan-2-yl]-2-pyridin-3-yltriazole-4-carboxamide] showed an IC50 of 0.001 µM.

Consider `N#CC1(NC(=O)[C@H](Cc2ccccc2)NC(=O)c2cnn(-c3ccc(F)cc3)n2)CC1` [Example 27, N-[(2S)-1-[(1-cyanocyclopropyl)amino]-1-oxo-3-phenylpropan-2-yl]-2-(4-fluorophenyl)triazole-4-carboxamide], for which the IC50 turned out to be 0.516 µM.

For `N#CC1(NC(=O)[C@H](Cc2ccc(OCC3CC3)c(Cl)c2)NC(=O)c2cnn(-c3ccc(F)cc3)n2)CC1` [Example 28, N-[(2S)-3-[3-chloro-4-(cyclopropylmethoxy)phenyl]-1-[(1-cyanocyclopropyl)amino]-1-oxopropan-2-yl]-2-(4-fluorophenyl)triazole-4-carboxamide], the IC50 came out at 0.19 µM.

Consider `N#CC1(NC(=O)[C@H](Cc2ccc(Cl)c(Cl)c2)NC(=O)c2cnn(-c3ccc(F)cc3)n2)CC1` [Example 29, N-[(2S)-1-[(1-cyanocyclopropyl)amino]-3-(3,4-dichlorophenyl)-1-oxopropan-2-yl]-2-(4-fluorophenyl)triazole-4-carboxamide], for which the IC50 stood at 0.007 µM.

In turn, `N#CC1(NC(=O)[C@H](Cc2ccc(OC(F)(F)F)c(Cl)c2)NC(=O)c2cnn(-c3ccc(F)nc3)n2)CC1` [Example 30, N-[(2S)-3-[3-chloro-4-(trifluoromethoxy)phenyl]-1-[(1-cyanocyclopropyl)amino]-1-oxopropan-2-yl]-2-(6-fluoropyridin-3-yl)triazole-4-carboxamide] registered a half-inhibitory concentration (IC50) of 0.005 µM.

With `N#CC1(NC(=O)[C@H](Cc2ccc(OCc3ccccc3)cc2)NC(=O)c2cnn(-c3ccc(F)cc3)n2)CC1` [Example 31, N-[(2S)-1-[(1-cyanocyclopropyl)amino]-1-oxo-3-(4-phenylmethoxyphenyl)propan-2-yl]-2-(4-fluorophenyl)triazole-4-carboxamide], inhibition was half-maximal at 0.019 µM (IC50).

`CC(C)C[C@H](NC(=O)c1cnn(-c2ccc(F)cc2)n1)C(=O)NC1(C#N)CC1` [Example 32, N-[(2S)-1-[(1-cyanocyclopropyl)amino]-4-methyl-1-oxopentan-2-yl]-2-(4-fluorophenyl)triazole-4-carboxamide] displayed an IC50 of 2.23 µM.

For `CC(C)n1ncc(C(=O)N[C@@H](Cc2ccc(OC(F)(F)F)c(Cl)c2)C(=O)NC2(C#N)CC2)n1` [Example 33, N-[(2S)-3-[3-chloro-4-(trifluoromethoxy)phenyl]-1-[(1-cyanocyclopropyl)amino]-1-oxopropan-2-yl]-2-propan-2-yltriazole-4-carboxamide], the IC50 is 0.004 µM.

On to `Cn1ncc(C(=O)N[C@@H](Cc2ccc(OC(F)(F)F)c(Cl)c2)C(=O)NC2(C#N)CC2)n1` [Example 34, N-[(2S)-3-[3-chloro-4-(trifluoromethoxy)phenyl]-1-[(1-cyanocyclopropyl)amino]-1-oxopropan-2-yl]-2-methyltriazole-4-carboxamide], for which half-maximal inhibition (IC50) required 0.04 µM.

Take `N#CC1(NC(=O)[C@H](Cc2ccc(OC(F)(F)F)c(Cl)c2)NC(=O)c2cnn(-c3ccc(Br)cc3)n2)CC1` [Example 35, 2-(4-bromophenyl)-N-[(2S)-3-[3-chloro-4-(trifluoromethoxy)phenyl]-1-[(1-cyanocyclopropyl)amino]-1-oxopropan-2-yl]triazole-4-carboxamide]: the IC50 came out at 0.028 µM.

On to `COCCOc1ccc(C[C@H](NC(=O)c2cnn(-c3ccc(F)cc3)n2)C(=O)NC2(C#N)CC2)cc1Cl` [Example 36, N-[(2S)-3-[3-chloro-4-(2-methoxyethoxy)phenyl]-1-[(1-cyanocyclopropyl)amino]-1-oxopropan-2-yl]-2-(4-fluorophenyl)triazole-4-carboxamide], for which the IC50 stood at 0.065 µM.

As to `CC(C)(C)n1ncc(C(=O)N[C@@H](Cc2ccc(OC(F)(F)F)c(Cl)c2)C(=O)NC2(C#N)CC2)n1` [Example 37, 2-tert-butyl-N-[(2S)-3-[3-chloro-4-(trifluoromethoxy)phenyl]-1-[(1-cyanocyclopropyl)amino]-1-oxopropan-2-yl]triazole-4-carboxamide], it took 0.004 µM to reach half-maximal inhibition (IC50).
